Tested on: HBV
Test: Liver HBV DNA in HBV transgenic mice
Settings: ADV at 5 mg/kg/day, oral gavage

CC(C)(C)C(=O)OCOP(=O)(COCCn1cnc2c(N)ncnc21)OCOC(=O)C(C)(C)C [ADV, Adefovir dipivoxil]
liver HBV DNA: reduced liver HBV DNA
